SMILES strings stand for the structures.

Drawing on a melting point compilation (Tetko et al.; mined from patent text by program, amines drawn as free bases though some values may be those of a salt), this text covers melting point for 85 compounds.

As to `CC1(C)Cc2c(F)cccc2C(c2cnc3ccccc3c2)=N1`, the melting point lay within 97 to 100 °C. `Cc1oc2c(-c3ccc(F)cc3)c(-c3ccc(S(C)(=O)=O)cc3)nn2c1-c1ccccc1` came in with a melting point of 234 to 236 °C. Under `CCCOc1cc(NC(=O)C[C@H]2O[C@H](c3cccc(OC)c3OC)c3cc(Cl)ccc3N(CC(C)(C)COC(C)=O)C2=O)cc2cc(C(=O)OC)oc12` stands 146 to 147 °C; under `CC(C)C1(C)C(=O)NC2c3ccccc3C(=O)N21` (stereo not given), 178 to 200 °C; under `Cc1c(NC(=O)c2cccc(OCCN)c2)c2ccccn2c1C(=O)c1ccc(NC(=O)C(F)(F)F)c(C(=O)OCc2ccccc2)c1`, 219 °C.

`COc1cccc(-c2ccc(C3C(CCC(O)c4ccc(F)cc4)C(=O)N3c3ccc(F)cc3)cc2)c1OC` (stereo not given) gave a melting point of 101 °C.

For `CCOc1c([N+](=O)[O-])cnn1-c1c(Cl)cc(C(F)(F)F)cc1Cl`, the melting point lay within 84 to 86 °C.

With `FC(F)(F)c1ccc(/C=C/c2cc(Cl)cc(Cl)c2)cc1`, the melting point was in the range of 98 to 100 °C. In turn, `O=C(Nc1cnn2ccccc12)C1CC1` gave a melting point of 159 to 162 °C. `CC(C)(C)c1cc(CC2=NC(=S)SC2)cc(C(C)(C)C)c1O` displayed a melting point of 138 to 140 °C.

As to `CCOC(=O)c1ccc(OCCN2CCN(c3ccc(I)nn3)CC2)cc1`, the melting point was 123 °C.

In turn, `C#CC[C@H](c1nc2cc(Cl)ccc2c(=O)n1Nc1ccccc1)N(CCCN)C(=O)c1cccc(Cl)c1F` yielded a melting point of 101 to 103 °C. Under `O=C(OCC(Cl)(Cl)Cl)N1C2CCC1CC(Sc1ccc(F)cc1)C2` (stereo not given) stands 65 to 67 °C; under `O=C1CCN=C(c2ccccc2Cl)c2ccccc21`, 135 to 137 °C. Under `O=C1c2ccc(-c3ccccc3)cc2CC1Br` (stereo not given) stands 99 to 100 °C.

As to `COC(=O)c1cc(Cl)c(OCCn2ccnc2)s1`, the melting point was in the range of 97 to 99 °C.

In the case of `COc1ccc([N+](=O)[O-])c(C#N)c1C`, the melting point lay within 128 to 130 °C. `CCOCCOc1c(C)cc(Oc2ccc3c(c2)C=C(C(=O)Nc2ccc(CN(C)C4CCOCC4)cc2)CCS3(=O)=O)cc1C`: the melting point is 111 to 113 °C. Under `O=C(O)C=Cc1cccc(-c2cccc([N+](=O)[O-])c2)c1` stands 247 to 248 °C; under `COc1cc(Cl)ccc1-c1ccc(C(C)=O)cc1`, 125 to 127 °C. For `CCOC(=O)c1cnc2ccc(OC)cc2c1Cl`, the melting point was 93.7 to 95.7 °C. Consider `Cc1nn(-c2ccccn2)c2[nH]c3cc(F)c(F)cc3c(=O)c12`, for which the melting point fell in the range of 274 to 277 °C.

`O=C(O)CCCNC(=O)c1nc(Cl)c(Cl)[nH]1` had a melting point of 285 °C.

The compound `CCCc1cc(C)c(OCCO)c(C(Nc2ccc(C(=N)N)cc2)C(=O)O)c1` (racemic) returned a melting point of 230 °C. `Cc1cc(C)c2nc(-c3cnc(NCCCC4CCN(C)CC4)nc3C)[nH]c2c1` came in with a melting point of 179 °C. Turning to `CC(C)(C)OC(=O)N1CCC[C@@H](Nc2nccc(-c3c(-c4cccc(C#N)c4)nc4sccn34)n2)C1`, the melting point fell in the range of 108 to 110 °C.

`Cc1nnc(NCCN2CCN(c3ncccn3)CC2)c2cc3ccccn3c12`: the melting point was 280 to 283 °C. Under `CCOC(=O)c1sc2nc(C)c(CC)c(=O)n2c1C` stands 122 to 124 °C. For the compound `Cc1cc(C)c(P(C(C)(C)C)C(C)(C)C)c(C)c1`, the melting point fell in the range of 36 to 37 °C. `NC(=O)C(c1ccc(C(=O)O)cc1)C(Cc1ccccc1)c1ccccc1N1CCCCC1` (stereo not given) yielded a melting point of 214 to 215 °C. With `COc1cccc(Cn2cnc3c(Br)c(NC4=NCCN4)ccc32)c1`, the melting point was in the range of 177 to 178 °C. The result for `CCOC(=O)CNc1nc(-c2ccccc2)c2cc(Cl)ccc2n1` reads 146 °C; that for `CCCCCC(C)N(Cc1ccnc2ccccc12)C(Nc1ccc(OC)cc1OC)=C1C(=O)OC(C)(C)OC1=O` (stereo not given), 197 to 202 °C; that for `N#CCCOc1cccc(OCCC#N)c1`, 109 to 110 °C. Compound `O=C(CCCOc1cccc(CN2CCCCC2)c1)Nc1nc(CCc2ccccc2)n[nH]1` registered a melting point of 192 to 193 °C. The result for `COCC(=O)Nc1cc2c(cc1C#N)C(Nc1ccc(C(=O)OC(C)(C)C)cc1)CC2` (stereo not given) reads 163 to 164 °C. The result for `CC(C)(C)c1cc(OCc2cccc(C#N)c2)cc(C(C)(C)C)c1O` reads 78 to 81 °C; that for `COc1ccc(CN2CC(C(=O)O)CC2=O)cc1OC` (stereo not given), 176 to 178 °C. For the compound `O=C(CC1=C(n2nc(-c3c(-c4ccccc4)nn4ccccc34)ccc2=O)CCCC1)N1CCOCC1`, the melting point lay within 202 to 204 °C.

`Cc1ccc(S(=O)(=O)N(Cc2ccccc2)N(C)C(=O)C2CC(S)CN2S(=O)(=O)c2ccc3ccccc3c2)cc1` (stereo not given) came in with a melting point of 82.5 °C.

`CNc1nc(C)c(-c2nc3ccccc3c(=O)n2-c2ccccc2Cl)s1` came in with a melting point of 214 to 215 °C. Turning to `Fc1ccc2[nH]c3c(c2c1)Cc1ccccc1-3`, the melting point was in the range of 225 to 227 °C. For `CN(CC(=O)O)C(=O)Nc1ccc(Cl)c(Cl)c1`, the melting point is 103 to 105 °C.

In turn, `NC(=O)CCCN(Cc1ccc(Cl)cc1)Cc1ccc(Cl)cc1` registered a melting point of 66 to 76 °C. Under `Cc1cc(-c2cccc(C3=Nc4ccc(-c5ccccc5F)cc4NC(=O)C3)c2)on1` stands 222 to 224 °C; under `CC(C)C1(C)C(=O)N=C2c3ccccc3C(=O)N21` (stereo not given), 98 to 100 °C. The result for `CC(C)N1C(=O)c2ccccc2Oc2ccccc21` reads 102 to 103 °C. The result for `O=C(O)Cn1c(Cc2ccccc2)ccc(NC(=O)CCCc2ccccc2)c1=O` reads 159 to 161 °C; that for `CC(=O)C1C2=CCC3C(CCC4(C)C(O)C(O)CC34)C2(C)CCC1O` (stereo not given), 152 to 153 °C. The compound `COc1nc(C)cnc1NS(=O)(=O)c1cccnc1-c1ccc(COCCO)cc1` returned a melting point of 106 to 108 °C. Under `O=C(Nc1cccc2c1C(=O)c1c-2n[nH]c1-c1ccc(C(=O)[C@]23CN[C@H](CN2)C3)s1)NN1CCOCC1` stands more than 300 °C. The result for `CCOc1ccc(C(O)(C(F)(F)F)C(F)(F)Cl)cc1` (stereo not given) reads 84 to 86 °C; that for `COc1nc(N)nc2nc(/C=C3/CC3(CO)CO)[nH]c12`, 188 to 189 °C; that for `CNC(N)=Nc1nc(-c2cccc(CNC(C)=O)n2)cs1`, 181 °C. Under `CNC(=O)Nc1ccc(Oc2ccc3sncc3c2)c(C(F)(F)F)c1` stands 138 °C; under `CCCCCCCCC(=O)Nc1cc(C)c(O)c(C)c1`, 100 to 101 °C; under `O=c1c(-c2ccccc2)cc(Cl)c2n1CCSc1ccsc1-2`, 179 °C.

Regarding `CCN(CC)CCOc1cccc2c1c1cc(Cl)ccc1n2Cc1ccc(F)cc1`, the melting point was 99 to 99.5 °C. Under `Cc1cc(-c2cc(C(F)(F)F)n3ncc(-c4nc(-c5cnc(N)nc5)no4)c3n2)ccc1Cl` stands 272 °C.

In turn, `CC#Cc1ncccc1C(=O)c1ccccc1Cl` had a melting point of 45 to 49 °C. As for `CN(C)C=C1CCc2cnccc2C1=O`, the melting point lay in the range of 76 to 79 °C. In the case of `O=C1C(c2ccc(-c3ccccc3)cc2)n2cncc2CN1Cc1ccc(F)cc1` (stereo not given), the melting point is 189 to 190 °C.

Turning to `COc1ccc2c(c1OCc1ccccc1)CC(C(=O)O)N(C(=O)N(C)c1ccccc1)C2` (racemic), the melting point is 134 to 136 °C.

In turn, `COc1ccccc1CN[C@H]1CCCN(CCCCCc2ccccc2)[C@H]1c1ccccc1` (relative stereo) yielded a melting point of 109 °C.

On to `CN1CS(=O)c2cccc(Br)c21` (stereo not given), for which the melting point fell in the range of 138 to 140 °C. `CC(C)(O)Cn1cnc2c(Cl)nc3ccccc3c21` had a melting point of 196 to 199 °C. For the compound `COc1nc2cc(Cl)c(Cl)cc2nc1NS(=O)(=O)c1cccc(Cl)c1Cl`, the melting point is 283 to 285 °C. In turn, `CC(=O)SCC(Cc1ccccc1)C(=O)NC1(C(=O)OCc2ccccc2)CCCCC1` (stereo not given) yielded a melting point of 166 to 168 °C. As to `O=C1c2c(Cl)cccc2-n2cnc(-c3noc(CN4Cc5ccccc5C4)n3)c2[C@@H]2CCN12`, the melting point lay within 218 to 222 °C.

`CCOC(=O)c1cn(-c2ccccc2)c2c(F)c(F)c(F)cc2c1=O` came in with a melting point of 190 to 192 °C. The result for `N#CC(C#N)(OC(=O)c1ccc(Cl)c(Cl)c1)c1ccc(Cl)c(Cl)c1` reads 110 °C. As to `Cc1cc(OCc2ccccc2)c2cc(C(N)=O)[nH]c2c1`, the melting point was in the range of 185 to 187 °C. Under `O=S(=O)(c1ccccc1)n1ccc2c(OCCCl)cccc21` stands 85 to 87 °C; under `CC(C)(C)c1cc(C(=O)OCCN(CCO)C(=O)c2cc(C(C)(C)C)c(O)c(C(C)(C)C)c2)cc(C(C)(C)C)c1O`, 174 to 178 °C; under `CCC(=O)Nc1ccc(C(=O)[C@H]2C[C@H]2C(=O)O)cc1` (relative stereo), 182 to 183 °C. Consider `CCOC(=O)CCCCCCCCCCCNC(=O)c1cc(OCc2ccccc2)ccc1OCc1ccccc1`, for which the melting point fell in the range of 70 to 71 °C.

With `CC(C)CC(Sc1c(Cl)cccc1Cl)c1c(O)cc(-c2ccccc2)oc1=O` (stereo not given), the melting point fell in the range of 158 to 162 °C. For `CCOC(=O)COc1cccc2c1CC(Br)C2=O` (stereo not given), the melting point was in the range of 60 to 63 °C. On to `O=C(O)[C@@H]1C[C@H]2C[C@@H](C=Cc3nsnc3O)CC[C@H]2CN1` (racemic), for which the melting point fell in the range of 239 to 242 °C. In turn, `C=C[C@H]1OC(C)(C)O[C@@H](CC(=O)OCc2ccccc2)[C@H]1NC(=O)OCc1ccccc1` (relative stereo) showed a melting point of 39 to 40.8 °C.

`CCCc1c(O)c(C(C)=O)cc(Cl)c1OCCCOc1ccc2ccc(OCC(=O)O)cc2c1C(C)=O` registered a melting point of 132 to 134 °C. Compound `CCOC(=O)c1ccc(NC(=O)C(c2ccc(Cl)cc2)c2ccc(Cl)cc2)cc1` had a melting point of 171 to 172 °C. Under `CCCCCCCCCCCCCCCCCCOC(=O)c1ccc(C)c(N)c1` stands 79 °C; under `CCCCc1nc(Cl)c(C(=O)O)n1Cc1ccc(-c2ccccc2-c2c(O)c(=O)c2=O)cc1`, 168 °C. In turn, `COc1cccc2cc(CNCCNC(=O)C34CC5CC(CC(C5)C3)C4)oc12` had a melting point of 105 to 110 °C.

For orientation: melting point means the temperature of the solid-liquid transition.
